From PubChem BioAssay (NCI)
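In this assay, cells in 96-well plates receive the compound at five concentrations for 48 hours. Endpoints are linearly interpolated between the surrounding concentrations. GI50 is the concentration that inhibits growth by half. At the TGI there is no net growth.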

Key:
Experiment in all cases: NCI anticancer screen, dose series, 48 h
OVCAR-3 ovarian = test system: OVCAR-3 ovarian
CCRF-CEM leukemia = test system: CCRF-CEM leukemia
T-47D breast = test system: T-47D breast
MDA-MB-435 = test system: MDA-MB-435
ACHN renal = test system: ACHN renal
NCI-H23 lung = test system: NCI-H23 lung
SF-268 CNS = test system: SF-268 CNS
OVCAR-4 ovarian = test system: OVCAR-4 ovarian
DU-145 prostate = test system: DU-145 prostate
EKVX NSCLC = test system: EKVX NSCLC

Compound: COCCN(Cc1ccc(F)cc1)c1ccc(CO)c(Cl)c1
- GI50 (OVCAR-3 ovarian): 3.54 µM
- TGI (OVCAR-3 ovarian): 15.4 µM
- GI50 (CCRF-CEM leukemia): 45.2 µM
- TGI (CCRF-CEM leukemia): > 100 µM
- GI50 (T-47D breast): 0.748 µM
- TGI (T-47D breast): 7.04 µM
- GI50 (MDA-MB-435): 55.5 µM
- TGI (MDA-MB-435): > 100 µM
- GI50 (ACHN renal): 39.9 µM
- TGI (ACHN renal): > 100 µM
- GI50 (NCI-H23 lung): 17.2 µM
- TGI (NCI-H23 lung): > 100 µM
- GI50 (SF-268 CNS): 50.6 µM
- TGI (SF-268 CNS): > 100 µM
- GI50 (OVCAR-4 ovarian): 1.82 µM
- TGI (OVCAR-4 ovarian): 23 µM
- GI50 (DU-145 prostate): 70.4 µM
- TGI (DU-145 prostate): > 100 µM

Compound: S=C1SCN(Cc2ccccc2)CN1Cc1ccco1
- GI50 (OVCAR-3 ovarian): 3.98 µM
- TGI (OVCAR-3 ovarian): 15 µM
- GI50 (CCRF-CEM leukemia): 2.75 µM
- TGI (CCRF-CEM leukemia): 18.5 µM
- GI50 (T-47D breast): 3.41 µM
- TGI (T-47D breast): 21.9 µM
- GI50 (MDA-MB-435): 1.67 µM
- TGI (MDA-MB-435): 10.4 µM
- GI50 (ACHN renal): 4.97 µM
- TGI (ACHN renal): 17.3 µM
- GI50 (NCI-H23 lung): 5.21 µM
- TGI (NCI-H23 lung): 34.9 µM
- GI50 (SF-268 CNS): 3.59 µM
- TGI (SF-268 CNS): 17.1 µM
- GI50 (DU-145 prostate): 2.85 µM
- TGI (DU-145 prostate): 9.61 µM

Compound: Nc1nc(=S)c2c(ncn2CCO)[nH]1
- TGI (OVCAR-3 ovarian): > 100 µM
- TGI (CCRF-CEM leukemia): > 100 µM
- TGI (ACHN renal): > 100 µM
- TGI (EKVX NSCLC): > 100 µM
- TGI (SF-268 CNS): > 100 µM
- TGI (OVCAR-4 ovarian): > 100 µM

Compound: COc1ccccc1CNCCN1C(=O)c2ccc3c4c(ccc(c24)C1=O)C(=O)N(CCNCc1ccccc1OC)C3=O
- GI50 (OVCAR-3 ovarian): 0.207 µM
- TGI (OVCAR-3 ovarian): 0.676 µM
- GI50 (CCRF-CEM leukemia): 0.244 µM
- GI50 (T-47D breast): 0.481 µM
- TGI (T-47D breast): 1.27 µM
- GI50 (ACHN renal): 0.39 µM
- TGI (ACHN renal): 1.24 µM
- GI50 (NCI-H23 lung): 0.19 µM
- TGI (NCI-H23 lung): 0.394 µM
- GI50 (SF-268 CNS): 0.269 µM
- TGI (SF-268 CNS): 1.12 µM
- GI50 (OVCAR-4 ovarian): 0.132 µM
- TGI (OVCAR-4 ovarian): 0.261 µM
- GI50 (DU-145 prostate): 0.321 µM
- TGI (DU-145 prostate): 1.11 µM

Compound: O=[N+]([O-])c1ccc(-c2ccc(C3=Nn4c(CNc5ccccc5Cl)nnc4SC3)o2)cc1
- TGI (OVCAR-3 ovarian): > 100 µM
- TGI (ACHN renal): > 100 µM
- TGI (NCI-H23 lung): > 100 µM
- TGI (SF-268 CNS): > 100 µM

Compound: CC1NOC(=O)C1N=Nc1ccc(Cl)cc1Cl (configuration not stated)
- TGI (OVCAR-3 ovarian): 36.9 µM
- TGI (CCRF-CEM leukemia): > 100 µM
- TGI (ACHN renal): 55.5 µM
- TGI (NCI-H23 lung): 64.2 µM
- TGI (EKVX NSCLC): 73.4 µM
- TGI (SF-268 CNS): 81.7 µM
- TGI (OVCAR-4 ovarian): 56.5 µM

Compound: CC(=O)Nc1ccc(C2CC(c3ccc([N+](=O)[O-])cc3)=Nc3ccccc3S2=O)cc1 (configuration not stated)
- TGI (OVCAR-3 ovarian): 54.7 µM
- TGI (CCRF-CEM leukemia): 31.8 µM
- TGI (ACHN renal): 51.8 µM
- TGI (NCI-H23 lung): 53.9 µM
- TGI (EKVX NSCLC): 97.5 µM
- TGI (SF-268 CNS): > 100 µM
- TGI (OVCAR-4 ovarian): 39.8 µM

Compound: N#CC1CC(c2ccccc2)Nc2cc(Cl)ccc2N1 (configuration not stated)
- TGI (OVCAR-3 ovarian): 57.1 µM
- TGI (CCRF-CEM leukemia): > 100 µM
- TGI (ACHN renal): > 100 µM
- TGI (NCI-H23 lung): > 83.7 µM
- TGI (EKVX NSCLC): > 100 µM
- TGI (SF-268 CNS): > 100 µM
- TGI (OVCAR-4 ovarian): > 100 µM

Compound: CCc1cccc(CC)c1NC(=O)/C(Cl)=C(/Cl)C(=O)O
- TGI (OVCAR-3 ovarian): 48.1 µM
- TGI (CCRF-CEM leukemia): 48.8 µM
- TGI (ACHN renal): 47.6 µM
- TGI (NCI-H23 lung): 66.5 µM
- TGI (EKVX NSCLC): > 68.5 µM
- TGI (SF-268 CNS): 64.1 µM
- TGI (OVCAR-4 ovarian): 31.1 µM

Compound: C#Cc1ccc(-n2c(/C=C/c3ccc(O)cc3)nc3ncccc3c2=O)cc1
- GI50 (OVCAR-3 ovarian): 2.41 µM
- TGI (OVCAR-3 ovarian): 5.69 µM
- GI50 (CCRF-CEM leukemia): 3.3 µM
- TGI (CCRF-CEM leukemia): > 100 µM
- GI50 (T-47D breast): 4.63 µM
- TGI (T-47D breast): > 100 µM
- GI50 (MDA-MB-435): 1.6 µM
- TGI (MDA-MB-435): 4.04 µM
- GI50 (ACHN renal): 6.31 µM
- TGI (ACHN renal): > 100 µM
- GI50 (NCI-H23 lung): 5.52 µM
- TGI (NCI-H23 lung): > 100 µM
- GI50 (SF-268 CNS): 5.24 µM
- TGI (SF-268 CNS): 68 µM
- GI50 (OVCAR-4 ovarian): 22.8 µM
- TGI (OVCAR-4 ovarian): > 100 µM
- GI50 (DU-145 prostate): 4.1 µM
- TGI (DU-145 prostate): 76.5 µM

Compound: CCOC(=O)C1=C(NC)OCC1=O
- TGI (OVCAR-3 ovarian): > 100 µM
- TGI (CCRF-CEM leukemia): > 100 µM
- TGI (ACHN renal): > 100 µM
- TGI (NCI-H23 lung): > 100 µM
- TGI (EKVX NSCLC): > 100 µM
- TGI (SF-268 CNS): > 100 µM
- TGI (OVCAR-4 ovarian): > 100 µM
